Source: ChEMBL document CHEMBL1287698, “Artemisinin-quinoline hybrid-dimers: synthesis and in vitro antiplasmodial activity” (Bioorg Med Chem Lett, 2010)

How the values were obtained:
Plasmodium falciparum [1] = assay: Resistance index, ratio of IC50 for chloroquine-resistant Plasmodium falciparum Dd2 to IC50 for chloroquine-sensitive Plasmodium falciparum D10; type: functional
Plasmodium falciparum [2] = assay: Antiplasmodial activity against chloroquine-sensitive Plasmodium falciparum D10; type: functional, organism-based
Plasmodium falciparum [3] = assay: Antiplasmodial activity against chloroquine-resistant Plasmodium falciparum Dd2; type: functional, organism-based
CHO = assay: Cytotoxicity against CHO cells by MTT assay; type: cell-based; details: Cricetulus griseus
[4] = Selectivity index, ratio of IC50 for CHO cells to IC50 of chloroquine-sensitive Plasmodium falciparum D10; type: toxicity, cell-based; details: hamster, read-out: Ratio IC50

Row | Compound | Ratio IC50 (Plasmodium falciparum [1]) | IC50 (Plasmodium falciparum [2]) | IC50 (Plasmodium falciparum [3]) | IC50 (CHO) | selectivity ratio [4]
1 | CC[C@H]1CN2CCc3cc(OC)c(OC)cc3[C@@H]2C[C@@H]1C[C@H]1NCCc2cc(OC)c(OC)cc21 [EMETINE] | 0.4 |  |  |  | 
2 | C[C@H]1[C@@H](OCCN(CCNc2ccnc3cc(Cl)ccc23)CCO[C@H]2O[C@@H]3O[C@]4(C)CC[C@H]5[C@H](C)CC[C@@H]([C@H]2C)[C@@]35OO4)O[C@@H]2O[C@]3(C)CC[C@H]4[C@H](C)CC[C@@H]1[C@@]24OO3 | 6 | 7.37 nM | 46.1 nM | 10 nM | 1360
3 | C[C@H]1[C@@H](OCCN(CCCCNc2ccnc3cc(Cl)ccc23)CCO[C@H]2O[C@@H]3O[C@]4(C)CC[C@H]5[C@H](C)CC[C@@H]([C@H]2C)[C@@]35OO4)O[C@@H]2O[C@]3(C)CC[C@H]4[C@H](C)CC[C@@H]1[C@@]24OO3 | 2 | 89 nM | 205 nM | 5.43 nM | 61
4 | C[C@H]1[C@@H](O)O[C@@H]2O[C@@]3(C)CC[C@H]4[C@H](C)CC[C@@H]1[C@@]24OO3 [ARTENIMOL] |  | 5.11 nM | 2.09 nM |  | 
5 | C[C@H]1[C@@H](O[N+]2(CCO[C@H]3O[C@H]4O[C@]5(C)CC[C@H]6[C@H](C)CC[C@@H]([C@H]3C)[C@@]46OO5)CCN(CCNc3ccnc4cc(Cl)ccc34)CC2)O[C@@H]2O[C@]3(C)CC[C@H]4[C@H](C)CC[C@@H]1[C@@]24OO3.[Br-] | 3 | 19.6 nM | 55.7 nM | 74.8 nM | 3810
6 | C[C@H]1[C@@H](OCCN(CCCNc2ccnc3cc(Cl)ccc23)CCO[C@H]2O[C@@H]3O[C@]4(C)CC[C@H]5[C@H](C)CC[C@@H]([C@H]2C)[C@@]35OO4)O[C@@H]2O[C@]3(C)CC[C@H]4[C@H](C)CC[C@@H]1[C@@]24OO3 | 5 | 5.31 nM | 28.4 nM | 0.68 nM | 128
